Measured values taken from US11414454B2, “Compositions, methods, and systems for affinity-based protein identification and purification” (Auctus Biologies, Inc., priority 2017, dated 2022).
Where two headings read alike, the source gives them in different places. No end group written: not given here.

How the values were obtained:
[1] = tested on: RPtag large with rhodamine labeled PDGF-β n-terminal peptide; assay: Competition of RPtag large / PDGF-β n-terminal peptide binding by unlabeled peptide; settings: 1 uM RPtag large, 1 uM labeled PDGF-β peptide, unlabeled competitor
Protocol: An initial Kd was measured between RPtag(large) and the PDGF-β N-terminal peptide (FIG. 16). […] Next, competition experiments were performed using the mutant RPtag(small) peptide Nd2,P5A,E18A.
The direct binding (left) and competition studies (right) presented in FIG. 16 were performed as follows. The indicated concentration of RPtag large was incubated with 20 nM rhodamine labeled PDGF-β n-terminal peptide for 1 h at room temperature, and the fluorescence anisotropy was measured. The curves were fit with the equation f=y0+(ymax−y0)*(Ptot+x+Kd−sqrt((Ptot+x+Kd)^2−4*Ptot*x))/(2*Ptot), where y0 is the baseline anisotropy, ymax is the maximum anisotropy, Ptot is the fixed concentration of labeled peptide used, x is the variable concentration of protein used, and Kd is the measured Kd. […] The curves were fit empirically to a 4 parameter logistic regression. In both cases, the buffer was 50 mM Tris pH 8.0, 0.005% Tween20. Curves were fit in […] each, and the data was averaged for display. Points are mean±SEM (n=3).

RPtag (large) = assay: Fluorescence anisotropy Kd of rhodamine labeled RPtag (small) peptides for RPtag (large); assay type: binding, Thermoanaerobacter tengcongensis
Method in brief: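 N-terminally rhodamine-labeled RPtag small (50 nM or 1 nM) titrated with RPtag large in 50 mM Tris pH 8.0 with 0.005% Tween 20, 5 min to 1 h at room temperature; BSA served as non-specific binding control. Kd from fitting fluorescence anisotropy to a quadratic binding equation accounting for labeled peptide concentration.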

RPtag (large) resin = assay: Affinity-based precipitation/pull-down with RPtag (large) resin; assay type: binding, Thermoanaerobacter tengcongensis; settings: 7 sequential pulldowns, 6 M guanidine hydrochloride washes
Protocol: The disclosed proteins and peptides were used in precipitation/pull-down assays. Specifically, rhodamine was tagged with the RPtag(small) Nd8Cd4 peptide and RPtag(large) was immobilized on a resin, as described above.
Briefly, 100 μL 1000 nM rhodamine labeled RPtag(small) peptide was incubated with 2.5 uL wet settled RPtag (large) resin generated as (as described above) in phosphate buffered saline (PBS; Gibco)+1% BSA+0.005% Tween 20 at 4° C. for 60 min with continuous orbital shaking. Samples were then washed 3× with 500 μL of the same buffer with no peptide to remove unbound peptide. Bound RPtag(small) peptides were then eluted with 100 μL 100 mM glycine pH 1.5+0.005% Tween20, and the pH raised by adding 1 μL 1 M borate pH 10.0. The amount eluted was calculated from the blank subtracted fluorescence of the elution versus the load. After each elution, resin was washed once with 500 μL 6M GdnHCl and once with 500 μL phosphate buffered saline (Gibco)+1% BSA+0.005% Tween 20, before repeating the assay.
Sequential precipitation/pulldown trials were performed with the rhodamine labelled RPtag(small) Nd8Cd4 peptide, and the RPtag(large)-resin. After binding and pull-down, the rhodamine-peptide was eluted in 100 mM glycine pH 1.5, the column was washed with water and 6 M guanidine hydrochloride, and then re-equilibrated with buffer (50 mM Tris pH 8.0, 10 mM EDTA). […]

[2] = N-terminal rhodamine tagged peptide, unlabeled RPtag (large), 50 mM Tris pH 8.0, 0.005% Tween 20, mean ± SE

Sequence | disruption of RPtag(large) binding to PDGF-β N-terminal peptide [1] | Kd (RPtag (large)) [nM] | Kd (RPtag (large); [2]) [nM] | binding capacity over sequential pulldowns (RPtag (large) resin) | Kd (RPtag (large); N-terminal rhodamine tagged peptide, unlabeled RPtag (large), 50 mM Tris pH 8.0, 0.005% Tween 20, mean ± SE, listed as Nd8Cd4) [nM]
KIANFIPAELKLITKANVQ [Nd2, p5a, e18a, KIANFIPAELKLITKANVQ] | could be disrupted | ~0.047 | 0.047 ± 0.018 | – | –
PAELKLITK [Nd8, Cd4, PAELKLITK] | – | – | 14 ± 1 | little to no loss of binding capacity | ~14
